The text below walks through data of patent publication US20180085333A1, “4-PHENYLBUTYRIC ACID DERIVATIVES” (priority 2015, published 2018).

What all share (design): species or system human
For test [1], the system named is recurrent vulvo-vaginitis. In words: In vivo activity of 4-PB against recurrent vulvo-vaginitis (patient cases). The following applies: two female patients. On the procedure: Two female patients were treated with 4-PB for other reasons (one for cancer and one for depressions).
In test [2] the test system is major depressive disorder. In words: In vivo activity of 4-PB against major depressive disorder (patient cases). On the procedure: Four female patients and one patient with major depressive disorders, some of which suffering from other diseases, were treated with 4-PB.
The test system of a further test is varicose veins. In words: In vivo activity of 4-PB against varicose veins (patient case). On the procedure: A patient with breast cancer was treated with 4-PB.
In test [3] the test system is primary sclerosing cholangitis. Nature of the test: In vivo activity of 4-PB against primary sclerosing cholangitis (patient cases). The following applies: two female patients chosen for liver transplant, after 5 months of treatment. On the procedure: Two female patients with primary sclerosing cholangitis were treated with 4-PB. Both had recurrent fever and abdominal pains for days. Both were chosen for liver transplant.

The subject of a further test is psoriasis. In words: In vivo activity of 4-PB against psoriasis (patient case). Conditions: received 4-PB for colon carcinoma, after four months of treatment, lasting after sessions of 4-PB. An excerpt:
A patient with generalized psoriasis, who has been treated for years with corticoids ointments, received 4-PB for a colon carcinoma.

Another test relates to ulcerative colitis. Nature of the test: In vivo activity of 4-PB against ulcerative colitis (patient case).
A further test relates to tinnitus. In words: In vivo activity of 4-PB against tinnitus (patient cases). The following applies: two male patients with tinnitus lasting more than ten years, after four months of treatment. On the procedure:
Two male patients with tinnitus, lasting for more than ten years, were treated with 4-PB.

For the compound `C[C@@H](NC(=O)CCCc1ccccc1)C(=O)O` [4-PB, N-(4-phenylbutanoyl)-D-alanine], in test [1] (after four months of treatment), the presence of vulvo-vaginitis entry was “both were free of vulvo-vaginitis”. Also, in test [1] (even after sessions of 4-PB), the “remission of vulvo-vaginitis after sessions of 4-PB” value was “complete remission”. Moreover, the depressions result in test [2] (four female patients and one patient with major depressive disorders) is reported as “depressions disappeared in three to five months”. The recurrence of depression result in test [2] (four female patients and one patient, after disappearance of depressions) is given as “No recurrences have been observed”. The “spider veins on both legs” value in the test with varicose veins (patient with breast cancer treated with 4-PB) is reported as “remained unchanged”. In addition, in the test on varicose veins (patient with breast cancer, during therapy with 4-PB), the “enlarged (varicose) veins on both legs” value was “disappearance of the enlarged veins on both legs”. In addition, the “recurrence of enlarged veins” value with varicose veins (patient, in the next 10 years) is given as “without a recurrence”. Also, the “symptoms and signs of cholangitis” value in test [3] is “both were free of symptoms and signs of the underlying cholangitis”. In addition, in the test with psoriasis, the “remission of generalized psoriasis” value is on record as “complete remission”. Moreover, the “response of ulcerative colitis to 4-PB” value with ulcerative colitis (patient with recurrent episodes of ulcerative colitis) is on record as “good response”. The “bowel state and symptoms (pain, diarrhea)” value in the test with ulcerative colitis (patient, after 6 months of treatment) was “bowels were normal and they had no pain and no diarrhea anymore”. In addition, the tinnitus result with tinnitus is “tinnitus has disappeared in both cases”.
